Test results taken from patent publication US7556828B2, “Pharmaceutical composition for treatment of BPH and preparation thereof” (priority 2003, dated 2009).
Marks after values point to notes of the source that are not given here.

What was measured:
[1] = tested on: otic swelling caused by mixed inflammatory solution of croton oil; experiment: Otic swelling caused by mixed inflammatory solution of croton oil; type: in vivo, mice; settings: 20 mg/kg once a day for 5 days
Method: 1. Impact on Otic Swelling Caused by Mixed Inflammatory Solution of Croton Oil. […] The treatments were administered to the mice once a day for 5 days. […] Four hours after inflammation, the mice were killed with a disjointed cervical vertebra method. The two ears were cut along the auricle baseline. Equal parts of the two ears (by area) were cut off and weighed on weighing scales to test twisting force. The degree of swelling/inflammation was obtained by subtracting the weight of the right ear from the weight of the left ear. The degrees of swelling between the control (contrast) groups and the test groups were analyzed statistically and the swelling inhibition rate was obtained.

tampon granuloma = experiment: Tampon granuloma of rats; type: in vivo; settings: 20 mg/kg once a day for 7 days
Method: Impact on Tampon Granuloma of Rats The same experimental materials and animals as in Experimental Example 2 were used. However, sixty (60) 150-180 g male rats were used. Under ether anesthesia and normal disinfection, two±1 mg sterilized tampons were embedded under the inguinal skins on either side of the bodies. […] The treatments were administered into the rats' stomachs once a day for 7 days. On the eighth day, the rats were killed via a disjointed cervical vertebra method. The tampons were removed and placed in a 60° C. oven for 12 hours and then weighed.

[2] = tested on: prostate hyperplasia caused by testosterone propionate; experiment: Prostate hyperplasia caused by testosterone propionate in rats, comparison of anti-prostate hyperplasia medicaments (Experimental Example 1); type: in vivo, Wistar rats; settings: for Prostate Gland Factors, Sum of three lobes (anterior, head and posterior lobes) / Inhibition rate % (Anterior lobe) / Inhibition rate % (Sum of three lobes): 30 days; for Inhibition rate % (Anterior lobe) / Inhibition rate % (Sum of three lobes): vs contrast group; for Prostate Gland Factors, Anterior lobe: once a day for 30 days, castrated rats + testosterone propionate 5 mg/Kg
Method: The effect of anti-prostate hyperplasia medicaments and the composition of the present invention in rats on prostate hyperplasia caused by testosterone propionate was evaluated as discussed below.
• 1. PROSCAR (5-α-reductase inhibitor): tablets, produced by Merck & Co., Inc., (UK) Co., prepared as 0.5 mg/ml medicament. • 2. Saw Palmetto tablets, produced by Zhejiang Conba Pharmaceutical Co. Ltd., prepared with distilled water into […]. • 3. Longbishu Capsules: produced by SHIJIAZHUAN KEDI Pharmaceutical Co., Ltd., prepared with distilled water into 0.18 g/ml medical liquid. • 4. The final extract of Example 9, prepared into […] medical liquid. • 5. Estradiol Benzoate injection • 6. Testosterone propionate injection Test Method and Results
Six 130 g-150 g male Wistar rats were anaesthetized with ether. The testes of each rat were removed under axenic conditions, and the test rats were bred for a week after operation. The rats were divided at random into 6 groups, with 6 rats in each group. All groups of animals were hyped each day with 5 mg/Kg testosterone propionate dissolved in prepared peanut oil. The control (contrast) groups were administered a physiological salt solution. The test groups were administered a treatment of 5 mg/Kg PROSCAR, 5 g/Kg Saw Palmetto, 1.8 g/Kg longbishu, and 6 g/Kg of the final extract obtained in Example 9 The treatment took the form of a1 ml/100 g medicament; for hypodermic injections of 50 μg/Kg estradiol benzoate, the volume was […], administered once a day for 30 days. 24 hours after the final treatment, all the rats were killed. The whole prostate glands were anatomized and placed in formalin. Extraneous fat was cut away from the prostate glands and the liquid on the surface was dried with filter papers. The prostate glands were then weighed with a tissue balance to calculate the weight.

[3] = tested on: testosterone propionate-induced prostate hyperplasia; experiment: Testosterone propionate-induced prostate hyperplasia in rats (Experimental Example 5); type: in vivo, Wistar rats
Method: Impact on Testosterone Propionate-Induced Prostate Hyperplasia in Rats
The same experimental materials and animals as in Experimental Example 2 were used. However, fifty (50) 130-150 g male Wistar rats were used. Under ether anesthesia and in sterilized surroundings, both testes of each rat were removed. The rats were then bred for a week after the operation. Next, the rats were randomly divided into 5 groups of 10 rats each. Each group of animals were hyped with 5 mg/kg testosterone propionate dissolved in prepared oil once a day. During the same time period, each group was also given one of the treatments: the control (contrast) group was administered a physiological saline solution; three test groups were administered a dose (1.5, 3 and 6 g/kg) of the extract from Example 9 in a preparation of 1 m/100 g. The positive control (contrast) group was hyped with 50 μg/kg estradiol benzoate in a volume of 0.05 ml/100 g, once a day for 30 days. After the last treatment, the rats were killed and their whole prostate glands were anatomized. The prostate glands were placed in formalin. All the fat was cut away from the prostate glands after they were removed from the formalin. The remaining formalin on the prostate gland surface was dried with filter papers. The prostate glands were then placed in 70% ethanol and fixed for 24 hours. Next, the prostate glands were removed from the ethanol and placed on filter papers. The anterior, head and posterior lobes of the prostate glands were separated and weighed on a weighing scale to test twisting force. The transverse diameter, diameter and height of the anterior lobes of the prostate glands were measured with a two-foot vernier. The volume of the anterior lobe of a prostate gland was obtained by multiplying the values of the three measurements. Finally, the anterior lobes were examined with tectology, and the diameter of the prostate gland cavity and the height of the glandular epithelium cells were measured. Non-pairing t-examinations among the groups were conducted for all indexes. The values of the treatment groups were compared to the control (contrast) groups in order to determine the average difference.

[4] = dose 50 g/Kg (so in the source), hypodermic
[5] = 50 μg/kg once a day for 30 days
[6] = estradiol benzoate 50 μg/kg, 30 days, vs control

CC(=O)OCC(=O)[C@@]1(O)CC[C@H]2[C@@H]3CCC4=CC(=O)CC[C@]4(C)[C@H]3[C@@H](O)C[C@@]21C [Hydrocortisone, Hydrocortisone acetate]
Inhabitation rate % [1]: 46.77%
Swelling degree (mg) (x ± SD) ([1]; 4 hours after croton oil): 9.50 ± 2.93 mg
Inhibition rate % (tampon granuloma): 42.43%
Weight of tampon granuloma (mg x ± SD) (tampon granuloma): 26.45 ± 2.61 mg

CC(C)(C)NC(=O)[C@H]1CC[C@H]2[C@@H]3CC[C@H]4NC(=O)C=C[C@]4(C)[C@H]3CC[C@]12C [PROSCAR]
Prostate Gland Factors, Sum of three lobes (anterior, head and posterior lobes) ([2]; dose 5 mg/Kg): 453.4 ± 59.1 mg/100 g
Inhibition rate % (Anterior lobe) ([2]; dose 5 mg/Kg): 42.3** %
Inhibition rate % (Sum of three lobes) ([2]; dose 5 mg/Kg): 37.1** %
Prostate Gland Factors, Anterior lobe ([2]; dose 5 mg/Kg): 164.2 ± 31.4 mg/100 g

C[C@]12CC[C@@H]3c4ccc(OC(=O)c5ccccc5)cc4CC[C@H]3[C@@H]1CC[C@@H]2O [estradiol benzoate, Estradiol Benzoate]
Prostate Gland Factors, Sum of three lobes (anterior, head and posterior lobes) [2, 4]: 585.3 ± 80.5 mg/100 g
Inhibition rate % (Anterior lobe) [2, 4]: 36.7** %
Inhibition rate % (Sum of three lobes) [2, 4]: 18.8** %
Prostate Gland Factors, Anterior lobe [2, 4]: 180.1 ± 55.8 mg/100 g
Volume of anterior lobe (cm3) [3, 5]: 0.42 ± 0.12 cm3
rat prostate factors, Anterior lobe [3, 5]: 127.2 ± 23.4 mg/100 g
rat prostate factors, Head lobe [3, 5]: 51.2 ± 10.7 mg/100 g
hyperplasia of the diameter of the glandular cavity of prostate anterior and head lobes (histology) ([3]; 30 days after treatment, microscopic examination): inhibit hyperplasia
inhibition rate for head lobes (weight) [3, 6]: 30.2%
inhibition rate for posterior lobe (weight) [3, 6]: 12.5%
inhibition rate for prostate anterior lobe (weight) [3, 6]: 35.3%
inhibition rate, volume of prostate anterior lobe [3, 6]: 45.5%
